Source: US5045458A, “Antibiotics PB-6042S” (Shionogi & Co., Ltd., priority 1988, dated 1991)
Converted amounts (≈) assume the structure as drawn. Where two headings read alike, the source gives them in different places.

What was measured:
[1] = test system: P. asaccharolyticus ATCC14963; assay: MIC against anaerobic bacteria; type: cell-based; settings: Peptoniphilus asaccharolyticus, ATCC14963
P. anaerobius B-38 = assay: MIC against anaerobic bacteria; type: cell-based; settings: Peptostreptococcus anaerobius, B38
P. prevotii ATCC9321 = assay: MIC against anaerobic bacteria; type: cell-based; settings: Anaerococcus prevotii, ATCC9321
P. micros VPI5464-1 = assay: MIC against anaerobic bacteria; type: cell-based; settings: Parvimonas micra, VPI54641
[2] = test system: S. constellatus ATCC27823; assay: MIC against anaerobic bacteria; type: cell-based; settings: Streptococcus constellatus
E. lentum II-1 = assay: MIC against anaerobic bacteria; type: cell-based; settings: Eggerthella lenta, II1
E. limosum ATCC8486 = assay: MIC against anaerobic bacteria; type: cell-based; settings: Eubacterium limosum; E. limosum ATCC8486; read-out: MIC
E. aerofaciens ATCC25986 = assay: MIC against anaerobic bacteria; type: cell-based; settings: Collinsella aerofaciens, ATCC25986
P. acens ATCC11827 = assay: MIC against anaerobic bacteria; type: cell-based
B. adolescentis JCM1250 = assay: MIC against anaerobic bacteria; type: cell-based; settings: Bifidobacterium adolescentis, JCM1250
B. bifidum JCM1122 = assay: MIC against anaerobic bacteria; type: cell-based; settings: Bifidobacterium bifidum
B. longum ATCC15707 = assay: MIC against anaerobic bacteria; type: cell-based; settings: Bifidobacterium longum
L. plantarum JCM1100 = assay: MIC against anaerobic bacteria; type: cell-based; settings: Lactiplantibacillus plantarum
L. ruminis ATCC27780 = assay: MIC against anaerobic bacteria; type: cell-based; settings: L. ruminis ATCC27780; read-out: MIC
C. perfringens SAKAI = assay: microbe, parasite or virus in culture; type: cell-based; settings: Clostridium perfringens
C. perfringens ATCC13124 = assay: microbe, parasite or virus in culture; type: cell-based; settings: Clostridium perfringens
C. difficile ATCC17857 = assay: MIC against anaerobic bacteria; type: cell-based; settings: Clostridioides difficile
B. fragilis GM7000 = assay: MIC against anaerobic bacteria; type: cell-based; settings: Bacteroides fragilis; B. fragilis GM7000; read-out: MIC
B. fragilis ATCC25285 = assay: MIC against anaerobic bacteria; type: cell-based; settings: Bacteroides fragilis; B. fragilis ATCC25285; read-out: MIC
[3] = test system: B. thetaiotaomicron WAL3304; assay: MIC against anaerobic bacteria; type: cell-based; settings: Bacteroides thetaiotaomicron; B. thetaiotaomicron WAL3304; read-out: MIC
B. vulgatus ATCC29327 = assay: MIC against anaerobic bacteria; type: cell-based; settings: Phocaeicola vulgatus; B. vulgatus ATCC29327; read-out: MIC
B. distasonis JU-11-1 = assay: MIC against anaerobic bacteria; type: cell-based; settings: Parabacteroides distasonis, JU111; B. distasonis JU-11-1; read-out: MIC
B. ovatus 2505 = assay: MIC against anaerobic bacteria; type: cell-based; settings: Bacteroides ovatus; B. ovatus 2505; read-out: MIC
[4] = test system: B. melaninogenicus GAI0413; assay: MIC against anaerobic bacteria; type: cell-based
F. varium ATCC8501 = assay: MIC against anaerobic bacteria; type: cell-based; settings: Fusobacterium varium
F. necrophorum ATCC25286 = assay: MIC against anaerobic bacteria; type: cell-based; settings: Fusobacterium necrophorum
F. nucleatum ATCC25586 = assay: MIC against anaerobic bacteria; type: cell-based; settings: Fusobacterium nucleatum
F. mortiferum ATCC9817 = assay: MIC against anaerobic bacteria; type: cell-based; settings: Fusobacterium mortiferum
anaerobic bacteria = assay: antibacterial activity against anaerobic bacteria (summary); type: cell-based; settings: in words
[5] = filter paper electrophoresis and bioautography (acidic property); type: physicochemical
Text: Other physicochemical properties of PB-6042s in the form of sodium salt are listed below.

S. aureus FDA JC-1 = assay: MIC against aerobic bacteria; settings: Staphylococcus aureus, FDAJC1
S. aureus SR14(R) = assay: MIC against aerobic bacteria; settings: Staphylococcus aureus
S. pyogenes C-203 = assay: MIC against aerobic bacteria; settings: Streptococcus pyogenes, C203
S. pneumoniae TYPE 1 = assay: MIC against aerobic bacteria; settings: Streptococcus pneumoniae, TYPE1
E. coli NIHJ JC-2 = assay: MIC against aerobic bacteria; settings: Escherichia coli, NIHJJC2
K. pneumoniae SR1 = assay: MIC against aerobic bacteria; settings: Klebsiella pneumoniae
P. vulgaris CN-329 = assay: MIC against aerobic bacteria; settings: Proteus vulgaris, CN329
P. aeruginosa A25619 = assay: MIC against aerobic bacteria; settings: Pseudomonas aeruginosa

Structure (SMILES) | MIC [1] [µg/mL] | MIC (P. anaerobius B-38) [µg/mL] | MIC (P. prevotii ATCC9321) [µg/mL] | MIC (P. micros VPI5464-1) [µg/mL] | MIC [2] [µg/mL] | MIC (E. limosum ATCC8486) [µg/mL] | MIC (E. aerofaciens ATCC25986) [µg/mL] | MIC (P. acens ATCC11827) [µg/mL] | MIC (B. adolescentis JCM1250) [µg/mL] | MIC (L. ruminis ATCC27780) [µg/mL] | MIC (C. perfringens SAKAI) [µg/mL] | MIC (C. perfringens ATCC13124) [µg/mL] | MIC (C. difficile ATCC17857) [µg/mL] | MIC (B. fragilis GM7000) [µg/mL] | MIC (B. fragilis ATCC25285) [µg/mL] | MIC [3] [µg/mL] | MIC (B. vulgatus ATCC29327) [µg/mL] | MIC (B. distasonis JU-11-1) [µg/mL] | MIC (B. ovatus 2505) [µg/mL] | MIC (F. varium ATCC8501) [µg/mL] | further results
C=C1OC(=O)C(C(=O)CCCCCCCCC)=C1O [PB-6042A] | 12.5 (≈ 46.9 µM) | 3.13 (≈ 11.8 µM) | 12.5 (≈ 46.9 µM) | 1.56 (≈ 5.86 µM) | 3.13 (≈ 11.8 µM) | 6.25 (≈ 23.5 µM) | 12.5 (≈ 46.9 µM) | 3.13 (≈ 11.8 µM) | 12.5 (≈ 46.9 µM) | 6.25 (≈ 23.5 µM) | 12.5 (≈ 46.9 µM) | 12.5 (≈ 46.9 µM) | 3.13 (≈ 11.8 µM) | 3.13 (≈ 11.8 µM) | 3.13 (≈ 11.8 µM) | 3.13 (≈ 11.8 µM) | 3.13 (≈ 11.8 µM) | 3.13 (≈ 11.8 µM) | 3.13 (≈ 11.8 µM) | > 100 | MIC (E. lentum II-1; E. lentum II-1, read-out: MIC): 6.25 µg/mL (≈ 23.5 µM); MIC (B. bifidum JCM1122; JCM1122): 12.5 µg/mL (≈ 46.9 µM); MIC (B. longum ATCC15707; B. longum ATCC15707, read-out: MIC): 6.25 µg/mL (≈ 23.5 µM); MIC (L. plantarum JCM1100; JCM1100): 12.5 µg/mL (≈ 46.9 µM); MIC ([4]; B. melaninogenicus GAI0413, read-out: MIC): 6.25 µg/mL (≈ 23.5 µM); MIC (F. necrophorum ATCC25286): 6.25 µg/mL (≈ 23.5 µM); MIC (F. nucleatum ATCC25586): 6.25 µg/mL (≈ 23.5 µM); MIC (F. mortiferum ATCC9817; ATCC9817): 12.5 µg/mL (≈ 46.9 µM); growth inhibition of anaerobic bacteria (anaerobic bacteria): inhibit the growth of anaerobic bacteria, selectively; acidic property [5]: acidic substances; MIC (S. aureus FDA JC-1): 25 µg/mL (≈ 93.9 µM); MIC (S. aureus SR14(R)): > 100 µg/mL; MIC (S. pyogenes C-203): 25 µg/mL (≈ 93.9 µM); MIC (S. pneumoniae TYPE 1): 25 µg/mL (≈ 93.9 µM); MIC (E. coli NIHJ JC-2): > 100 µg/mL; MIC (K. pneumoniae SR1): > 100 µg/mL; MIC (P. vulgaris CN-329): > 100 µg/mL; MIC (P. aeruginosa A25619): > 100 µg/mL
C=C1OC(=O)C(C(=O)CCC/C=C\CCCCCC)=C1O [PB-6042B] | 6.25 (≈ 21.4 µM) | 3.13 (≈ 10.7 µM) | 6.25 (≈ 21.4 µM) | 1.56 (≈ 5.34 µM) | 1.56 (≈ 5.34 µM) | 3.13 (≈ 10.7 µM) | 6.25 (≈ 21.4 µM) | 3.13 (≈ 10.7 µM) | 6.25 (≈ 21.4 µM) | 3.13 (≈ 10.7 µM) | 6.25 (≈ 21.4 µM) | 6.25 (≈ 21.4 µM) | 1.56 (≈ 5.34 µM) | 3.13 (≈ 10.7 µM) | 3.13 (≈ 10.7 µM) | 3.13 (≈ 10.7 µM) | 3.13 (≈ 10.7 µM) | 3.13 (≈ 10.7 µM) | 3.13 (≈ 10.7 µM) | > 100 | MIC (E. lentum II-1): 6.25 µg/mL (≈ 21.4 µM); MIC (B. bifidum JCM1122; B. bifidum JCM1122, read-out: MIC): 12.5 µg/mL (≈ 42.8 µM); MIC (B. longum ATCC15707; ATCC15707): 6.25 µg/mL (≈ 21.4 µM); MIC (L. plantarum JCM1100; L. plantarum JCM1100, read-out: MIC): 12.5 µg/mL (≈ 42.8 µM); MIC ([4]; GAI0413): 6.25 µg/mL (≈ 21.4 µM); MIC (F. necrophorum ATCC25286): 12.5 µg/mL (≈ 42.8 µM); MIC (F. nucleatum ATCC25586): 12.5 µg/mL (≈ 42.8 µM); MIC (F. mortiferum ATCC9817; F. mortiferum ATCC9817, read-out: MIC): 25 µg/mL (≈ 85.5 µM); growth inhibition of anaerobic bacteria (anaerobic bacteria): inhibit the growth of anaerobic bacteria, selectively; acidic property [5]: acidic substances; MIC (S. aureus FDA JC-1): 12.5 µg/mL (≈ 42.8 µM); MIC (S. aureus SR14(R)): 12.5 µg/mL (≈ 42.8 µM); MIC (S. pyogenes C-203): 12.5 µg/mL (≈ 42.8 µM); MIC (S. pneumoniae TYPE 1): 12.5 µg/mL (≈ 42.8 µM); MIC (E. coli NIHJ JC-2): > 100 µg/mL; MIC (K. pneumoniae SR1): > 100 µg/mL; MIC (P. vulgaris CN-329): > 100 µg/mL; MIC (P. aeruginosa A25619): > 100 µg/mL
